Laboratory results from patent publication US10689367B2, “Triazole pyridyl compounds as agonists of the APJ receptor” (AMGEN INC., priority 2016, dated 2020).

Each compound was assayed against human APJ receptor (Homo sapiens (Human), UniProt P35414) (assay: [35S]GTPγS binding assay on membranes from CHO cells stably expressing human APJ receptor). Conditions: membranes of CHO cells stably expressing human APJ receptor, read-out: Activity hAPJ SPA EC50 IP.
Sequence of human APJ receptor (P35414 whole entry): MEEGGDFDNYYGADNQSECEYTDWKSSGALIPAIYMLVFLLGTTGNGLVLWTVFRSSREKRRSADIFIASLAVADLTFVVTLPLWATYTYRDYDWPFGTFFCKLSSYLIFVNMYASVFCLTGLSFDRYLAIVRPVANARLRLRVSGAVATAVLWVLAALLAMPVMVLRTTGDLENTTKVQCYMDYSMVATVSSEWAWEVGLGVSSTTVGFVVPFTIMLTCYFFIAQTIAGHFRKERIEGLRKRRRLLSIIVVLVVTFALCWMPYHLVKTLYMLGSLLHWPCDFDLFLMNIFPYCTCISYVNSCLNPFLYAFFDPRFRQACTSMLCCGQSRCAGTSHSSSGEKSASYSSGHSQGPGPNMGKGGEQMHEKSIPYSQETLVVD
Format: biochemical
How it was run: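 [35S]GTPγS binding measured on membranes from CHO cells stably expressing FLAG-tagged human APJ, with GDP, MgCl2 and NaCl levels optimized beforehand. Incubation 90 min at RT, imager read-out; EC50 from non-linear regression, averaged over several independent experiments.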
Compound `COc1cccc(-c2nnc(NS(=O)(=O)[C@@H](C)[C@@H](OC(C)C)c3ncc(C)cn3)n2[C@@H](C)c2noc(C)n2)n1` (single isomer, unassigned) [Example 259.0, (1S,2S)-N-(5-(6-methoxy-2-pyridinyl)-4-((1R)-1-(5-methyl-1,2,4-oxadiazol-3-yl)ethyl)-4H-1,2,4-triazol-3-yl)-1-(5-methyl-2-pyrimidinyl)-1-(2-propanyloxy)-2-propanesulfonamide or (1S,2S)-N-(5-(6-methoxy-2-pyridinyl)-4-((1S)-1-(5-methyl-1,2,4-oxadiazol-3-yl)ethyl)-4H-1,2,4-triazol-3-yl)-1-(5-methyl-2-pyrimidinyl)-1-(2-propanyloxy)-2-propanesulfonamide] has an EC50 of 8.7 nM.
`CC[C@@H](c1c(C)noc1C)n1c(NS(=O)(=O)[C@@H](C)[C@H](OC)c2cnc(C)cn2)nnc1-c1cccc(OC)n1` (single isomer, unassigned) [Example 222.0, (1R,2S)-N-(4-((1S)-1-(3,5-dimethyl-1,2-oxazol-4-yl)propyl)-5-(6-methoxy-2-pyridinyl)-4H-1,2,4-triazol-3-yl)-1-methoxy-1-(5-methyl-2-pyrazinyl)-2-propanesulfonamide or (1R,2S)-N-(4-((1R)-1-(3,5-dimethyl-1,2-oxazol-4-yl)propyl)-5-(6-methoxy-2-pyridinyl)-4H-1,2,4-triazol-3-yl)-1-methoxy-1-(5-methyl-2-pyrazinyl)-2-propanesulfonamide] showed an EC50 of 58 nM.
With `Cc1cncc(-c2nnc(NS(=O)(=O)[C@@H](C)[C@@H](OC(C)C)c3ncc(Cl)cn3)n2C2CC2)c1` [Example 129.0] the EC50 was 66 nM.
With `CO[C@H](c1ncc(Cl)cn1)[C@H](C)S(=O)(=O)Nc1nnc(-c2ccccn2)n1C1(C)CC1` [Example 97.0] the EC50 was 11 nM.
Work on `COc1cccc(-c2nnc(NS(=O)(=O)[C@@H](C)[C@H](OC)c3ncc(Cl)cn3)n2CC2CCOC2)n1` (single isomer, unassigned) [Example 286.0, (1R,2S)-1-(5-chloropyrimidin-2-yl)-1-methoxy-N-(5-(6-methoxypyridin-2-yl)-4-(((R)-tetrahydrofuran-3-yl)methyl)-4H-1,2,4-triazol-3-yl)propane-2-sulfonamide or (1R,2S)-1-(5-chloropyrimidin-2-yl)-1-methoxy-N-(5-(6-methoxypyridin-2-yl)-4-(((S)-tetrahydrofuran-3-yl)methyl)-4H-1,2,4-triazol-3-yl)propane-2-sulfonamide] yielded an EC50 of 55 nM.
Compound `COC[C@H](C)n1c(NS(=O)(=O)[C@@H](C)[C@H](C)c2ncc(Cl)cn2)nnc1-c1ccccn1` [Example 175.0, (2S,3R)-3-(5-chloro-2-pyrimidinyl)-N-(4-((2S)-1-methoxy-2-propanyl)-5-(2-pyridinyl)-4H-1,2,4-triazol-3-yl)-2-butanesulfonamide] has an EC50 of 30 nM.
Compound `COc1cccc(-c2nnc(NS(=O)(=O)[C@@H](C)[C@H](OC)c3ncc(Cl)cn3)n2[C@H](C)c2cc(F)cc(F)c2)n1` (single isomer, unassigned) [Example 340.0, (1R,2S)-1-(5-chloropyrimidin-2-yl)-N-(4-((R)-1-(3,5-difluorophenyl)ethyl)-5-(6-methoxypyridin-2-yl)-4H-1,2,4-triazol-3-yl)-1-methoxypropane-2-sulfonamide or (1R,2S)-1-(5-chloropyrimidin-2-yl)-N-(4-((S)-1-(3,5-difluorophenyl)ethyl)-5-(6-methoxypyridin-2-yl)-4H-1,2,4-triazol-3-yl)-1-methoxypropane-2-sulfonamide] has an EC50 of 0.18 nM.
`COc1cnc([C@@H](OC)[C@H](C)S(=O)(=O)Nc2nnc(-c3cccc(OC)n3)n2C2CC2)cn1` [Example 121.0] was tested, and the EC50 was 21 nM.
With `CCc1cc(Cn2c(NS(=O)(=O)[C@@H](C)[C@H](OC)c3ncc(Cl)cn3)nnc2-c2cncc(C)c2)on1` [Example 293.0, (1R,2S)-1-(5-chloropyrimidin-2-yl)-N-(4-((3-ethylisoxazol-5-yl)methyl)-5-(5-methylpyridin-3-yl)-4H-1,2,4-triazol-3-yl)-1-methoxypropane-2-sulfonamide] the EC50 was 200 nM.
